Reference: patent publication US9023858B2, “Substituted pyrido[2,3-d]pyrimidines as delta-5-desaturase inhibitors” (Takeda Pharmaceutical Company Limited, priority 2010, dated 2015)
Structures can show the parent of a compound that is named as a salt.

Columns and labels:
delta-5-desaturase [1] = target: T1, delta-5-desaturase (Rattus norvegicus, UniProt Q920R3); assay: Inhibitory activity on binding of [3H]-labelled Reference Example 1 ligand to delta-5-desaturase (rat liver microsome fraction); settings: test compound 10 μM; for inhibition at 10 µM: 3 nM tritiated ligand of Reference Example 1, read-out: Binding inhibitory activity against compound bind to delta-5-desaturase Binding inhibition rate (%) at 10 μM; for Binding inhibitory activity against compound bind to delta-5-desaturase Binding inhibition rate (%) at 10 μM: 3 nM tritiated ligand of Reference Example 1, sodium salt
T1 construct: a rat liver microsome fraction (10 μl) diluted to 3 mg/ml with a microsome buffer; from tissue; host or cells: rat liver microsome fraction
T1 sequence (Q920R3 whole entry): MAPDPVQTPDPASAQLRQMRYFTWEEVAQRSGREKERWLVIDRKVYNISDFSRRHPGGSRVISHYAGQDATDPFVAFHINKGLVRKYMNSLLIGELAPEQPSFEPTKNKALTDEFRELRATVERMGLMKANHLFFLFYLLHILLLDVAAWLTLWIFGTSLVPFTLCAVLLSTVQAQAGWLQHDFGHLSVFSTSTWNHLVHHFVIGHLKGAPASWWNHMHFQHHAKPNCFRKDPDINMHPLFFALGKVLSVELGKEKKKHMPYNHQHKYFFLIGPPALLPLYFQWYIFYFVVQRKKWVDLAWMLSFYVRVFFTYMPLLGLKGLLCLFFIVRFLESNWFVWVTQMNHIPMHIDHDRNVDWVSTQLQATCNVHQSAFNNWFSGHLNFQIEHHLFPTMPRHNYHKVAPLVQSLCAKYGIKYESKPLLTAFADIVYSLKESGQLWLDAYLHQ
Experimental: Inhibitory Activity on Binding of N-[2-({4-oxo-3-[4-(2,2,2-trifluoroethoxy)[2,6-^3H2]phenyl]-3,4-dihydrothieno[3,4-d]pyrimidin-2-yl}sulfanyl)ethyl]acetamide (Reference Example 1) to delta-5-desaturase)
All tests were performed at room temperature at 200 μL/well. A rat liver microsome fraction (30 μg/well) was preincubated with a test compound at a final concentration of 10 μM for 15 min in an assay buffer (10 mM Tris-HCl (pH 7.5), 100 mM KCl, 10 mM NaF, 3 mM MgCl2, 0.005% Tween20 and 1 mM GSH). N-[2-({4-oxo-3-[4-(2,2,2-trifluoroethoxy) [2,6-^3H2]phenyl]-3,4-dihydrothieno[3,4-d]pyrimidin-2-yl}sulfanyl)ethyl]acetamide was added to a final concentration of 3 nM and the mixture was incubated for 150 min. For Bound/Free separation, the membrane fraction was added on a GF/C glass filter using a cell harvester. The GF/C glass filter was washed 5 times with 300 μl of ice-cooled assay buffer (without 0.005% Tween) to separate the ligand bound to delta-5-desaturase. 50 μl of MicroScinti 0 was added, and the radioactivity on the filter was measured by TopCount. To evaluate non-specific binding, 10 μM N-[2-({4-oxo-3-[4-(2,2,2-trifluoroethoxy)phenyl]-3,4-dihydrothieno[3,4-d]pyrimidin-2-yl}sulfanyl)ethyl]acetamide was used. The inhibitory rate (%) of the test compound (10 μM) on the binding of N-[2-({4-oxo-3-[4-(2,2,2-trifluoroethoxy) [2,6-^3H2]phenyl]-3,4-dihydrothieno[3,4-d]pyrimidin-2-yl}sulfanyl)ethyl]acetamide to delta-5-desaturase was determined.

delta-5-desaturase [2] = target: T1, delta-5-desaturase; assay: Delta-5-desaturase inhibitory activity using rat liver microsome; assay type: biochemical; settings: test compound 10 μM; for delta-5-desaturase inhibitory activity (at liver microsome) Inhibitory activity (%) at 10 μM: sodium salt
Experimental: Delta-5-Desaturase Inhibitory Activity Using Rat Liver Microsome
The inhibitory activity of the test compound on delta-5-desaturase was measured by the method described below. To a solution of the test compound in DMSO prepared in advance was secondarily diluted with a buffer (300 mM NaH2PO4 [pH 7.4], 450 mM KCl, 30 mM NaF, 9 mM MgCl2, 4.5 mM glutathione [reduced form], 0.3% BSA [fatty acid free, SIGMA]) to give an assay buffer. The assay buffer (10 μl) was dispensed to a polypropylene deep 96-well block, and a rat liver microsome fraction (10 μl) diluted to 3 mg/ml with a microsome buffer (10 mM Tris-HCl [pH 7.4], 1 mM EDTA, 250 mM sucrose) was added. The enzyme reaction was started by adding 9 mM NADH, 9 mM ATP, 0.9 mM CoA, 10 μCi/ml (8E,11E,14E)-(1-^14C)eicosa-8,11,14-trienoic acid (PerkinElmer Inc.) (10 μl). The enzyme reaction was performed for 120 min at room temperature, and discontinued by the addition of 10 μl of 2.5M NaOH. After discontinuation of the reaction, the plate was sealed and incubated overnight at 55° C. to allow saponification. The fatty acid was extracted with solvent based on the Bligh & Dyer method described in Can. J. Biochem. Physiol., vol. 37, page 911 (1959) by adding formic acid:methanol:chloroform (1:6:3) (200 μl), maintaining the single layer state, sufficiently stirring the mixture and adding pure water (120 μl) for separation into two layers. The lower chloroform layer (10 μl) was spotted on a reversed-phase TLC plate (RP-18, 1154230001, Merck Japan, Ltd.), developed with acetonitrile:pure water:acetic acid (95:4.5:0.5), and the dried TLC plate was transcribed on Imaging Plate (Fuji Photo Film Co., Ltd.) for 5 hr or longer. The detection was performed using BAS-5000 (Fuji Photo Film Co., Ltd.), and the obtained spot image was numerically converted by Multi Gauge Ver2.3 (Fuji Photo Film Co., Ltd.) and a delta-5-desaturase inhibitory rate (%) of 10 μM test compound was determined.

delta-5-desaturase [3] = target: T2, delta-5-desaturase (Homo sapiens, UniProt O60427); assay: Delta-5-desaturase inhibitory activity using HepG2 cell; assay type: cell-based; settings: test compound 1 μM
T2 construct: endogenous in cells; host or cells: HepG2
T2 sequence (O60427 whole entry): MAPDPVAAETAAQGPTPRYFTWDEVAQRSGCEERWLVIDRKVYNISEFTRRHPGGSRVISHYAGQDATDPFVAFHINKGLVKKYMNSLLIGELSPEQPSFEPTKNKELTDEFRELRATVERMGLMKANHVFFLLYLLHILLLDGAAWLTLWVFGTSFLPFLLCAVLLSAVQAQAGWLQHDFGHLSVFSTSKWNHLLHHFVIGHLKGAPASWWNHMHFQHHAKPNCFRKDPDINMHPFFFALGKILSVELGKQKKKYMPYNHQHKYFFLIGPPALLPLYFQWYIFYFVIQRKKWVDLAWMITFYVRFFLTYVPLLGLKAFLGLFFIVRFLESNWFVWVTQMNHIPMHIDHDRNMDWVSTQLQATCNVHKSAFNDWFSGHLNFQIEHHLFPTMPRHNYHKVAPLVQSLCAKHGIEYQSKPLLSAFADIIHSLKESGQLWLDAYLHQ
Experimental: Delta-5-Desaturase Inhibitory Activity Using HepG2 Cell
HepG2 was plated on a 96-well plate at 1×10^5 cells/well, and cultured overnight in DMEM (Dulbecco's modified Eagle medium) containing 10% FBS (fetal bovine serum). After washing (200 μL×2) with PBS (phosphate buffered saline), 40 μL of a reaction medium (DMEM, penicillin/streptomycin, 0.3% BSA) containing the test compound was added, and the mixture was preincubated in a CO2 incubator at 37° C. for 30 min. The reaction was started by adding a reaction medium (20 μL) containing 0.1 μCi [^14C]Eicosatrienoic acid, and the mixture was incubated in a CO2 incubator at 37° C. Incubation was performed for 3 hr, the cells were washed twice with 200 μL of PBS, detached with 50 μL of trypsin-EDTA and placed on a 96-deep well block. Furthermore, 20 μL of 2.5N NaOH was added, the plate was sealed and incubated overnight at 55° C. to allow saponification. The fatty acid extraction included acidifying with 10 μL of formic acid, adding chloroform:methanol (1:4), stirring, and further adding 200 μL of pure water to separate into two layers. The operation after development with TLC followed the method of detection system using TLC in a system using a rat liver microsome. A delta-5-desaturase inhibitory rate (%) of 1 μM test compound was determined.

delta-5-desaturase [4] = target: T3, delta-5-desaturase (Mus musculus, UniProt Q920L1); assay: Delta-5-desaturase inhibitory action in vivo (liver AA/DGLA ratio in mice); settings: 3 mg/kg by gavage for 4 days; male C57BL/6J mice; liver phospholipid fraction; solvent administration group as 100%
T3 construct: the mice were anesthetized, and the liver was isolated; tissue CLEA Japan, Inc; host or cells: liver of C57BL/6J mice (in vivo dosing)
T3 sequence (Q920L1 1-447): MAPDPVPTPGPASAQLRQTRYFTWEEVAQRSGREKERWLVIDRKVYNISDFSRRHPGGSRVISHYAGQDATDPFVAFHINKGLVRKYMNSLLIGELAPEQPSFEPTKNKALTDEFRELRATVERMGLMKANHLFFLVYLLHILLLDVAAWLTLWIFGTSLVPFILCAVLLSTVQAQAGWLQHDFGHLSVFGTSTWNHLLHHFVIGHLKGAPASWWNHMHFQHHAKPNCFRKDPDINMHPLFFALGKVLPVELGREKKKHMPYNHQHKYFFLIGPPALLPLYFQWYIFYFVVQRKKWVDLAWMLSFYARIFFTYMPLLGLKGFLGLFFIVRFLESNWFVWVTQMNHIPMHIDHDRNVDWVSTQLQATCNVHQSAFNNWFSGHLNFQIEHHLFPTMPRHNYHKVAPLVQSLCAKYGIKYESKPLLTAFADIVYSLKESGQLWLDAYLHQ
Experimental: Delta-5-Desaturase Inhibitory Action In Vivo
The delta-5-desaturase inhibitory action of the test compound in vivo was evaluated by the following method. A suspension of a test compound (3 mg/kg) in 0.5% methylcellulose was administered by gavage every morning at 10 mL/kg for 4 days to 7- to 9-week-old male normal mice (C57BL/6J, CLEA Japan, Inc.) acclimated with a normal chow feed (CE-2, CLEA Japan, Inc.) in individual cages. In the next morning of the final administration, the mice were anesthetized, and the liver was isolated. Total lipid was extracted from about 40 mg of a liver sample with hexane-propanol solution, and a phospholipid fraction was extracted using a solid phase extraction column (Sep-Pak Vac NH2, Waters) and labeled with an esterified long-chain and short-chain fatty acid labeling reagent (YMC). The arachidonic acid and dihomo-γ-linolenic acid contents of the sample after labeling were measured by high performance liquid chromatography (Agilent 1200, Agilent Technologies). The arachidonic acid (AA) content was divided by the content of dihomo-γ-linolenic acid (DGLA) to obtain an AA/DGLA ratio. The decrease rate of the test compound administration group was calculated based on the AA/DGLA ratio of the solvent administration group as 100%, which was used as an index of the liver delta-5-desaturase inhibitory action in vivo.

inhibition at 10 µM (delta-5-desaturase [1])	inhibition at 10 µM (delta-5-desaturase [2])	inhibition at 1 µM (delta-5-desaturase [3])	lowering rate (%) of arachidonic acid/dihomo-γ-linolenic acid ratio (delta-5-desaturase [4])	Binding inhibitory activity against compound bind to delta-5-desaturase Binding inhibition rate (%) at 10 μM (delta-5-desaturase [1])	delta-5-desaturase inhibitory activity (at liver microsome) Inhibitory activity (%) at 10 μM (delta-5-desaturase [2])	SMILES
94%	100%	101%	73%			CCSc1nc2nc(OC)ccc2c(=O)n1-c1ccc(OCC(F)(F)F)cc1 [Example 1, 2-(ethylsulfanyl)-7-methoxy-3-[4-(2,2,2-trifluoroethoxy)phenyl]pyrido[2,3-d]pyrimidin-4(3H)-one]
99%	102%	96%	64%			CCOc1nc2nc(OC)ccc2c(=O)n1-c1ccc(OCC(F)(F)F)cc1 [Example 4, 2-ethoxy-7-methoxy-3-[4-(2,2,2-trifluoroethoxy)phenyl]pyrido[2,3-d]pyrimidin-4(3H)-one]
			71%	94%	98%	CCOc1nc2[nH]c(=O)ccc2c(=O)n1-c1ccc(OCC(F)(F)F)cc1 [Example 10, 2-ethoxy-3-[4-(2,2,2-trifluoroethoxy)phenyl]pyrido[2,3-d]pyrimidine-4,7(3H,8H)-dione sodium salt]
			70%	96%	99%	O=c1ccc2c(=O)n(-c3ccc(OCC(F)(F)F)cc3)c(OCC(F)(F)F)nc2[nH]1 [Example 12, 2-(2,2,2-trifluoroethoxy)-3-[4-(2,2,2-trifluoroethoxy)phenyl]pyrido[2,3-d]pyrimidine-4,7(3H,8H)-dione sodium salt]
99%	104%	102%	69%			O=c1ccc2c(=O)n(-c3ccc(OCC(F)(F)F)cc3)c(OC3CCC(F)(F)CC3)nc2[nH]1 [Example 15, 2-[(4,4-difluorocyclohexyl)oxy]-3-[4-(2,2,2-trifluoroethoxy)phenyl]pyrido[2,3-d]pyrimidine-4,7(3H,8H)-dione]
96%	101%	102%	69%			O=c1ccc2c(=O)n(-c3ccc(OCC(F)(F)F)cc3)c(OCC(F)F)nc2[nH]1 [Example 16, 2-(2,2-difluoroethoxy)-3-[4-(2,2,2-trifluoroethoxy)phenyl]pyrido[2,3-d]pyrimidine-4,7(3H,8H)-dione]
92%	100%	101%	68%			O=C1CCc2c(nc(OCC(F)(F)F)n(-c3ccc(OCC(F)(F)F)cc3)c2=O)N1 [Example 22, 2-(2,2,2-trifluoroethoxy)-3-[4-(2,2,2-trifluoroethoxy)phenyl]-5,6-dihydropyrido[2,3-d]pyrimidine-4,7(3H,8H)-dione]
91%	96%	93%	67%			CCOc1nc2c(c(=O)n1-c1ccc(OCC(F)(F)F)cc1)CCC(=O)N2 [Example 23, 2-ethoxy-3-[4-(2,2,2-trifluoroethoxy)phenyl]-5,6-dihydropyrido[2,3-d]pyrimidine-4,7(3H,8H)-dione]
91%		98%	67%			O=C1CCc2c(nc(CCC(F)(F)F)n(-c3ccc(OCC(F)(F)F)cc3)c2=O)N1 [Example 39, 3-[4-(2,2,2-trifluoroethoxy)phenyl]-2-(3,3,3-trifluoropropyl)-5,6-dihydropyrido[2,3-d]pyrimidine-4,7(3H,8H)-dione]
